Drawing on patent publication US11905284B2, “5,7-dihydro-pyrrolo-pyridine derivatives” (PFIZER INC., priority 2016, dated 2024), this text covers Emax and EC50 for 18 compounds.

The target in this experiment is T1, Human M4 receptors (Homo sapiens, UniProt P08173).
T1 construct: expressed in transfected cells; host or cells: HEK293 cells with Promega GloSensor cAMP technology, stably expressing hM4
T1 sequence (P08173 1-479): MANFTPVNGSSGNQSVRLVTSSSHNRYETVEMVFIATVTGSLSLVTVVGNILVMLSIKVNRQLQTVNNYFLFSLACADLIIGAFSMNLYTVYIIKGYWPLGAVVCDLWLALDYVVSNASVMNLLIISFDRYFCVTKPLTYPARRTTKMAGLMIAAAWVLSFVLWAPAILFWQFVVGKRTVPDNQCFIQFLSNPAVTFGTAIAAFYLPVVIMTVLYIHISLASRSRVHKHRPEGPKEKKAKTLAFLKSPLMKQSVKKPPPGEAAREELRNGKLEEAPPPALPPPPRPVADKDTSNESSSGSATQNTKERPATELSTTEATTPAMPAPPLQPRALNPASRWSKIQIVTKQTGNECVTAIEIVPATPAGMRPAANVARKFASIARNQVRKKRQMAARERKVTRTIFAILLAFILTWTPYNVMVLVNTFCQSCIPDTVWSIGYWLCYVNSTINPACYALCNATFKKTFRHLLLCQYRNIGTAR
As to the kind of experiment: M4 PAM cAMP assay (GloSensor). It counts as cell-based. To be noted: for Emax: HEK293, read-out: M4 glosensor EC50 Mean Asymptote Maximum (%); for EC50: HEK293 GloSensor cells expressing hM4, with EC20 acetylcholine and isoproterenol, geometric mean of 2-4 determinations unless otherwise indicated. On the procedure: The M4 PAM binding affinity for the compounds of the present invention was determined utilizing the following biological assay(s):
The M4 cAMP assay was designed to determine the potency and efficacy of muscarinic positive allosteric modulators (PAMs). Human M4 receptors were stably expressed in Human embryonic kidney (HEK293) cells expressed with the Promega GloSensor™ cAMP technology.
HEK293 GloSensor cells expressing hM4 cells were cultured in growth media containing DMEM with 10% FBS, 1% Penicillin/Streptomycin, 500 μg/mL G418, 200 μg/mL Hygomycin B, and 1% Glutamax. […] Plates were incubated at 37 degrees C. and 5% CO2 for use after 24 hours.
Compound Preparation for Agonist Screen:
Each compound was tested at 10 concentrations in duplicate per experiment. Compound plates are spotted with 0.2 μL/well agonist at 400 times the final assay concentration. Positive and negative controls for the compound alone agonist response was 10 μM acetylcholine (Sigma #A2661) and DMSO, respectively. EC20 of acetylcholine was also used to define PAM activities.
Promega GloSensor™ reagent (Promega #E1291) had previously been aliquotted. […] Stock solution was mixed. Culture media in cell plates was discarded, then replaced with 40 μL/well pre-warmed equilibration media, then incubated in the dark at room temperature for 2 hours. During the incubation, stimulation media containing agonist and EC20 acetylcholine was prepared. […] Compounds are now 5 times the final assay concentration. The plate was mixed using a plate agitator. At the end of the 2 hour GloSensor™ incubation, add 10 μL of the CO2-independent media containing agonist, EC20 acetylcholine and isoproterenol to the cell plate. Cell plate was then incubated for 10 minutes at room temperature, and then read using an EnVision plate reader (Perkin Elmer).
Data was exported from the EnVision plate reader. The percent effect for each well was determined using the mean values for the positive and negative controls on each plate for each read, specifically 100*(compound−negative control)/(positive control−negative control). Dose response curves were fitted to the compound percent effect data using a 4-parameter logistic fit model. Data was reported as EC50 and Emax, with the Emax as the maximum asymptote of the fitted dose response curve.
In general terms: Changes in cAMP serve as a functional read-out for many G protein-coupled receptors.

Turning to `COCc1cc(C)c2c(n1)CN(C(=O)CC1CN(c3ccnc(C(F)F)c3)C1)C2` [Example 50, 2-{1-[2-(difluoromethyl)pyridin-4-yl]azetidin-3-yl}-1-[2-(methoxymethyl)-4-methyl-5,7-dihydro-6H-pyrrolo[3,4-b]pyridin-6-yl]ethanone], the Emax came out at 99.2% and the EC50 is 14.3 nM.

Turning to `COCc1nc2c(c(C)c1Cl)CN(C(=O)CC1CN(c3ccnc(OC(F)F)c3)C1)C2` [Example 52, 1-[3-chloro-2-(methoxymethyl)-4-methyl-5,7-dihydro-6H-pyrrolo[3,4-b]pyridin-6-yl]-2-{1-[2-(difluoromethoxy)pyridin-4-yl]azetidin-3-yl}ethanone], the Emax amounted to 111% and the half-maximal effective concentration (EC50) turned out to be 4.68 nM.

`Cc1c(C(F)F)nc2c(c1C)CN(C(=O)CC1CN(c3ccnc(C(F)F)c3)C1)C2` [Example 53, 1-[2-(difluoromethyl)-3,4-dimethyl-5,7-dihydro-6H-pyrrolo[3,4-b]pyridin-6-yl]-2-{1-[2-(difluoromethyl)pyridin-4-yl]azetidin-3-yl}ethanone]: the Emax was 104% and the EC50 was 38.6 nM.

Turning to `Cc1cc(C)c2c(n1)CN(C(=O)CC1Cc3ccccc3C1)C2` [Example 56, 2-(2,3-dihydro-1H-inden-2-yl)-1-(2,4-dimethyl-5,7-dihydro-6H-pyrrolo[3,4-b]pyridin-6-yl)ethanone], the Emax was determined as 71.8% and the concentration giving a half-maximal response (EC50) worked out at 209 nM.

Take `Cc1cc(C)c2c(n1)CN(C(=O)OC1CN(c3nncs3)C1)C2` [Example 62, 1-(1,3,4-thiadiazol-2-yl)azetidin-3-yl 2,4-dimethyl-5,7-dihydro-6H-pyrrolo[3,4-b]pyridine-6-carboxylate]: the Emax came out at 47% and the 50% effective concentration (EC50) was determined as 95.7 nM.

`Cc1c(C(F)F)nc2c(c1C)CN(C(=O)OC1CN(c3ncns3)C1)C2` [Example 63, 1-(1,2,4-thiadiazol-5-yl)azetidin-3-yl 2-(difluoromethyl)-3,4-dimethyl-5,7-dihydro-6H-pyrrolo[3,4-b]pyridine-6-carboxylate]: the Emax was found to be 51.8% and the EC50 was 42.4 nM.

With `Cc1nc2c(c(C)c1C)CN(C(=O)OC1CN(c3ncns3)C1)C2` [Example 64, 1-(1,2,4-thiadiazol-5-yl)azetidin-3-yl 2,3,4-trimethyl-5,7-dihydro-6H-pyrrolo[3,4-b]pyridine-6-carboxylate], the Emax was found to be 88.5% and the response was half-maximal at 40.2 nM (EC50).

Turning to `Cc1nc2c(c(C)c1C)CN(C(=O)OC1CN(c3nncs3)C1)C2` [Example 65, 1-(1,3,4-thiadiazol-2-yl)azetidin-3-yl 2,3,4-trimethyl-5,7-dihydro-6H-pyrrolo[3,4-b]pyridine-6-carboxylate], the Emax was 88.2% and it took 62.6 nM to reach a half-maximal effect (EC50).

Take `COCc1nc2c(c(C)c1Cl)CN(C(=O)OC1CN(c3cccnc3)C1)C2` [Example 66, 1-(pyridin-3-yl)azetidin-3-yl 3-chloro-2-(methoxymethyl)-4-methyl-5,7-dihydro-6H-pyrrolo[3,4-b]pyridine-6-carboxylate]: the Emax was 163% and the EC50 was found to be 52.3 nM.

On to `Cc1nc2c(c(C)c1Cl)CN(C(=O)OC1CN(c3ncns3)C1)C2` [Example 67, 1-(1,2,4-thiadiazol-5-yl)azetidin-3-yl 3-chloro-2,4-dimethyl-5,7-dihydro-6H-pyrrolo[3,4-b]pyridine-6-carboxylate], for which the Emax came out at 98.6% and the midpoint of the response, the EC50, lay at 18.5 nM.

In the case of `Cc1cc(C)c2c(n1)CN(C(=O)CC1CN(c3ccc(C4(C)COC4)cc3)C1)C2` [Example 68, 1-(2,4-dimethyl-5,7-dihydro-6H-pyrrolo[3,4-b]pyridin-6-yl)-2-{1-[4-(3-methyloxetan-3-yl)phenyl]azetidin-3-yl}ethanone], the Emax stood at 99.4% and the concentration for a half-maximal effect (EC50) came to 485 nM.

Take `COc1ccc(C#N)cc1N1CC(CC(=O)N2Cc3nc(C)cc(C)c3C2)C1` [Example 69, 3-{3-[2-(2,4-dimethyl-5,7-dihydro-6H-pyrrolo[3,4-b]pyridin-6-yl)-2-oxoethyl]azetidin-1-yl}-4-methoxybenzonitrile]: the Emax worked out at 41.5% and a half-maximal effect (EC50) was put at 1360 nM.

Turning to `Cc1cc(C)c2c(n1)CN(C(=O)CC1CN(c3ccc(C(=O)N(C)C)cc3)C1)C2` [Example 70, 4-{3-[2-(2,4-dimethyl-5,7-dihydro-6H-pyrrolo[3,4-b]pyridin-6-yl)-2-oxoethyl]azetidin-1-yl}-N,N-dimethylbenzamide], the Emax stood at 95% and the EC50 is 184 nM.

As to `Cc1cc(C)c2c(n1)CN(C(=O)CC1CN(c3ccc(CO)cc3)C1)C2` [Example 71, 1-(2,4-dimethyl-5,7-dihydro-6H-pyrrolo[3,4-b]pyridin-6-yl)-2-{1-[4-(hydroxymethyl)phenyl]azetidin-3-yl}ethanone], the Emax was 90.5% and it took 195 nM to reach a half-maximal effect (EC50).

Turning to `Cc1cc(C)c2c(n1)CN(C(=O)CC1CN(c3ccc(C4CC4)cc3)C1)C2` [Example 72, 2-[1-(4-cyclopropylphenyl)azetidin-3-yl]-1-(2,4-dimethyl-5,7-dihydro-6H-pyrrolo[3,4-b]pyridin-6-yl)ethanone], the Emax was determined as 90.6% and the half-maximal effective concentration (EC50) was 537 nM.

As for `Cc1cc(C)c2c(n1)CN(C(=O)CC1CN(c3ccc(C(O)C4CC4)cc3)C1)C2` (stereo not drawn) [Example 73, 2-(1-{4-[cyclopropyl(hydroxy)methyl]phenyl}azetidin-3-yl)-1-(2,4-dimethyl-5,7-dihydro-6H-pyrrolo[3,4-b]pyridin-6-yl)ethanone], the Emax is 95.3% and a half-maximal response (EC50) required 90.5 nM.

`COc1ccc(N2CC(CC(=O)N3Cc4nc(C)cc(C)c4C3)C2)cc1CC#N` [Example 74, (5-{3-[2-(2,4-dimethyl-5,7-dihydro-6H-pyrrolo[3,4-b]pyridin-6-yl)-2-oxoethyl]azetidin-1-yl}-2-methoxyphenyl)acetonitrile]: the Emax was determined as 84.4% and the EC50 is 460 nM.

On to `CNC(=O)c1ccc(N2CC(CC(=O)N3Cc4nc(C)cc(C)c4C3)C2)cc1` [Example 75, 4-{3-[2-(2,4-dimethyl-5,7-dihydro-6H-pyrrolo[3,4-b]pyridin-6-yl)-2-oxoethyl]azetidin-1-yl}-N-methylbenzamide], for which the Emax was 89.2% and the EC50 is 105 nM.

As usually defined, the EC50 is the concentration at which the effect is half-maximal. A high value points to a need for much substance.
